# Source: US11402382B2, “Diagnostic and therapeutic methods for cancer” (Genentech, Inc., priority 2017, dated 2022)
# Like-named read-outs stand apart in the source and are kept apart here.
# Tests used:
# [1] = tested on: previously untreated metastatic renal cell carcinoma (mRCC); experiment: IMmotion150: PFS and ORR in PD-L1 IHC and gene expression signature (Teff, Angio, Myeloid) subgroups; assay type: in vivo, human; settings: for PFS HR (95% CI) vs Sun: unstratified
# Experimental: PD-L1 status on tumor-infiltrating immune cells (IC) was assessed in the phase II IMmotion150 study by immunohistochemistry (IHC) using the anti-human PD-L1 rabbit monoclonal antibody, SP142, and scored using an identical IHC scoring criteria (IC1/2/3=≥1% of tumor-infiltrating lymphocytes are PD-L1-positive; IC2/3=≥5% of tumor-infiltrating lymphocytes are PD-L1-positive) (n=297). PD-L1 status can be assessed as described in International Patent Application Publication Nos. WO 2016/183326 and WO 2016/196298. Mutation evaluations by whole exome sequencing (WES) and gene expression analyses by RNA-Seq (n=263) were also performed. For the gene expression analyses, gene expression levels were evaluated for T effector and IFNγ response (Teff) genes (CD8A, IFNG, PRF1, EOMES, and PD-L1), as well as for angiogenesis-related (Ang) genes (VEGFA, KDR, ESM1, PECAM1, ANGPTL4, and CD34), and myeloid inflammation-related (Myeloid) genes (IL6, CXCL1, CXCL2, CXCL3, CXCL8, and PTGS2). The Teff genes at low expression levels (i.e., below the median expression levels of the evaluated Teff genes; “Teff low”) and high expression levels (i.e., at or above the median expression levels of the evaluated Teff genes; “Teff high”) were evaluated in relation to progress-free survival (PFS) per RECIST v.1.1 via Independent Review Facility (IRF) assessment. The Ang genes at low expression levels (i.e., below the median expression levels of the evaluated Ang genes; “Ang low”) and high expression levels (i.e., at or above the median expression levels of the evaluated Ang genes; “Ang high”) were also evaluated in relation to PFS per RECIST v.1.1 via IRF assessment. The Myeloid genes at low expression levels (i.e., below the median expression levels of the evaluated Myeloid genes; “Myeloid low”) and high expression levels (i.e., at or above the median expression levels of the evaluated Myeloid genes; “Myeloid high”) were also evaluated in relation to PFS per RECIST v.1.1 via IRF assessment. To determine the median expression levels, first a Z-score was calculated for the normalized expression of all of the genes in a group. The median level of all the Z-scores across the dataset was used as a reference level to identify biomarker high versus biomarker low subgroups.
# Tumor specimens from patients acquired <12 months prior to study treatment were required for enrollment in the study. Tissue was prospectively tested for PD-L1 expression on IC by a central laboratory using the SP142 IHC assay (VENTANA, Tucson, Ariz.). IC staining was defined as follows: any discernible PD-L1 staining of any intensity in IC covering <1% or absent, between ≥1% and <5%, between ≥5% and <10%, or ≥10% of tumor area.
# Kaplan-Meier methodology was used to estimate the median PFS for each treatment arm, and Kaplan-Meier curves were produced. The primary analysis was triggered when 140 INV-PFS events occurred among patients treated with atezolizumab+bevacizumab and with sunitinib or among patients treated with atezolizumab alone and with sunitinib, whichever occurred later. […] The stratification factors included prior nephrectomy, tumor PD-L1 status, and MSKCC score and were determined based on data from the electronic case report form; if such data were missing, data collected by the IxRS at the time of randomization were used. Tumor specimens were prospectively tested for PD-L1 expression on ICs by a central laboratory using the SP142 IHC assay (VENTANA, Tucson, Ariz.). IC staining was defined as follows: any discernible PD-L1 staining of any intensity in IC covering <1% or absent (ICO), between ≥1% and <5% (IC1), between ≥5% and <10% (IC2), or ≥10% (IC3) of tumor area occupied by tumor cells, associated intratumoral, and contiguous peri-tumoral desmoplastic stroma.
# Whole transcriptome profiles were generated for 263 patients using TRUSEQ® RNA Access technology (ILLUMINA®). RNAseq reads were first aligned to ribosomal RNA sequences to remove ribosomal reads. […]
# [2] = IMmotion150 phase 2 randomized trial: safety (adverse events); settings: for Arthralgia / Constipation / Cough / Decreased appetite / Diarrhea / Dysgeusia / Epistaxis / Fatigue / Headache / Hypertension / Infections and infestations / Mucosal inflammation / Nausea / Palmar-plantar erythrodysesthesia syndrome / Proteinuria / Pruritus / Pyrexia / Rash / Stomatitis / Vomiting: AEs occurring in ≥20% of patients in any arm; for Treatment-related AE: all grade; for AEs leading to death: events: footnote a of Table 23;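 on all read-outs here: Open-label multicenter randomized phase 2 trial with three treatment arms, safety set restricted to patients who actually received study drug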
# Experimental: (§1) Study treatment consisted of atezolizumab 1200 mg fixed intravenous dose +bevacizumab 15 mg/kg every three weeks, atezolizumab 1200 mg fixed intravenous dose every three weeks, or sunitinib 50 mg/day orally for four weeks followed by two weeks of rest. On disease progression (as assessed by the investigator per RECIST v1.1), patients randomized to atezolizumab monotherapy or sunitinib had the option to cross over and receive the atezolizumab+bevacizumab combination in some regions (option was not available in Europe). In the absence of unacceptable toxicity, treatment with the combination continued until evidence of progressive disease. Where permitted, patients in the atezolizumab-containing arms could continue to be treated beyond disease progression per RECIST v1.1 until lack of clinical benefit; those in non-European nations could cross over to atezolizumab+bevacizumab therapy at any time after disease progression per RECIST v1.1, provided all eligibility criteria were met.
# [3] = in vivo
# Experimental: as §1
# [4] = Teff^HighMyeloid^High vs Teff^HighMyeloid^Low
# [5] = AE of special interest, All Grade
# [6] = AE of special interest, Grade 3/4
compound,measurement,setting,value
"CCN(CC)CCNC(=O)c1c(C)[nH]c(/C=C2\C(=O)Nc3ccc(F)cc32)c1C [Sunitinib, N-[2-(Diethylamino)ethyl]-5-[(Z)-(5-fluoro-2-oxo-1,2-dihydro-3H-indol-3-ylidene)methyl]-2,4-dimethyl-1H-pyrrole-3-carboxamide]",ORR,[1]; Angio^High subgroup,45%
same,"PFS HR (95% CI), within arm analysis",[1]; Angio^High vs Angio^Low,0.31
same,ORR,[1]; Angio^Low subgroup,10%
same,"PFS HR (95% CI), within arm analysis",[1]; Myeloid^High vs Myeloid^Low,0.82
same,"PFS HR (95% CI), within arm analysis",[1]; Teff^High vs Teff^Low,1.31
same,"PFS HR (95% CI), within arm analysis",[1]; [4],1.10
same,AEs leading to death,[2]; % of patients,(2%)
same,AEs leading to dose modification or interruption,[2]; % of patients,(70%)
same,AEs leading to withdrawal from treatment,[2]; % of patients,(10%)
same,"Grade 3/4 AEs, any cause",[2]; % of patients,(69%)
same,Treatment-related AEs leading to death,[2]; % of patients,(2%)
same,Treatment-related AEs leading to withdrawal from treatment,[2]; % of patients,(9%)
same,Treatment-related grade 3/4 AEs,[2]; % of patients,(57%)
same,Treatment-related AEs leading to withdrawal from treatment,"[2]; % of patients, listed as sunitinib",9%
same,Decreased blood cortisol/adrenal insufficiency,[2]; [5],0 n
same,Pneumonitis,[2]; [5],0 n
same,Colitis,[2]; [6],0 n
same,Decreased blood cortisol/adrenal insufficiency,[2]; [6],0 n
same,Pneumonitis,[2]; [6],0 n
same,TSH decreased/hypothyroidism,[2]; [6],0 n
same,TSH increased/hyperthyroidism,[2]; [6],0 n
same,Arthralgia,[2],(18.0%)
same,Constipation,[2],(30.0%)
same,Cough,[2],(25.0%)
same,Decreased appetite,[2],(29.0%)
same,Diarrhea,[2],(59.0%)
same,Dysgeusia,[2],(30.0%)
same,Epistaxis,[2],(12.0%)
same,Fatigue,[2],(70.0%)
same,Headache,[2],(23.0%)
same,Hypertension,[2],(35.0%)
same,Infections and infestations,[2],(32.0%)
same,Mucosal inflammation,[2],(33.0%)
same,Nausea,[2],(45.0%)
same,Palmar-plantar erythrodysesthesia syndrome,[2],(40.0%)
same,Proteinuria,[2],(9.0%)
same,Pruritus,[2],(10.0%)
same,Pyrexia,[2],(12.0%)
same,Rash,[2],(13.0%)
same,Stomatitis,[2],(25.0%)
same,Vomiting,[2],(20.0%)
same,Arthralgia,[2]; number of patients,18
same,Constipation,[2]; number of patients,30
same,Cough,[2]; number of patients,25
same,Decreased appetite,[2]; number of patients,29
same,Diarrhea,[2]; number of patients,59
same,Dysgeusia,[2]; number of patients,30
same,Epistaxis,[2]; number of patients,12
same,Fatigue,[2]; number of patients,70
same,Headache,[2]; number of patients,23
same,Hypertension,[2]; number of patients,35
same,Infections and infestations,[2]; number of patients,32
same,Mucosal inflammation,[2]; number of patients,33
same,Nausea,[2]; number of patients,45
same,Palmar-plantar erythrodysesthesia syndrome,[2]; number of patients,40
same,Proteinuria,[2]; number of patients,9
same,Pruritus,[2]; number of patients,10
same,Pyrexia,[2]; number of patients,12
same,Rash,[2]; number of patients,13
same,Stomatitis,[2]; number of patients,25
same,Vomiting,[2]; number of patients,20
same,Treatment-related AE,[2]; % of patients,(96%)
same,Treatment-related AE,[2]; number of patients,96 n
same,AEs leading to death: events,[2],"sudden death (related), intestinal hemorrhage (related)"
same,related AE leading to treatment discontinuation: increased blood creatinine,[2]; in vivo,2%
same,related AE leading to treatment discontinuation: palmar-plantar erythrodysesthesia syndrome,[2]; in vivo,2%
same,AEs leading to death,[2]; number of patients,2 n
same,AEs leading to dose modification or interruption,[2]; number of patients,70 n
same,AEs leading to withdrawal from treatment,[2]; number of patients,10 n
same,"All-grade AEs, any cause",[2]; number of patients,99 n
same,"Grade 3/4 AEs, any cause",[2]; number of patients,69 n
same,Treatment-related AEs leading to death,[2]; number of patients,2 n
same,Treatment-related AEs leading to withdrawal from treatment,[2]; number of patients,9 n
same,Treatment-related grade 3/4 AEs,[2]; number of patients,57 n
"Atezo: anti-PD-L1 antibody atezolizumab (CAS Registry Number: 1422185-06-5), Genentech, also known as MPDL3280A",PFS HR (95% CI) vs Sunitinib,[1]; Ang high (Angio^High) subgroup,1.46
same,PFS HR (95% CI) vs Sunitinib,[1]; Ang low (Angio^Low) subgroup,0.75
same,"PFS HR (95% CI), within arm analysis",[1]; Angio^High vs Angio^Low,0.74
same,PFS HR (95% CI) vs Sunitinib,[1]; Myeloid^High subgroup,2.03
same,"PFS HR (95% CI), within arm analysis",[1]; Myeloid^High vs Myeloid^Low,2.98
same,PFS HR (95% CI) vs Sunitinib,[1]; Myeloid^Low subgroup,0.53
same,PFS HR (95% CI) vs Sun,[1]; PD-L1 IHC IC1/2/3,0.97
same,PFS HR (95% CI) vs Sun,[1]; PD-L1 IHC IC2/3,0.54
same,PFS HR (95% CI) vs Sunitinib,[1]; Teff high subgroup (at or above median),0.85
same,PFS HR (95% CI) vs Sunitinib,[1]; Teff low subgroup (below median),1.33
same,PFS HR (95% CI) vs Sunitinib,[1]; Teff^High Myeloid^High subgroup,1.81
same,PFS HR (95% CI) vs Sunitinib,[1]; Teff^High Myeloid^Low subgroup,0.47
same,"PFS HR (95% CI), within arm analysis",[1]; Teff^High vs Teff^Low,0.83
same,"PFS HR (95% CI), within arm analysis",[1]; [4],3.82
same,Colitis,[3],0 n
same,Decreased blood cortisol/adrenal insufficiency,[3],0 n
same,Pneumonitis,[3],0 n
same,TSH decreased/hypothyroidism,[3],0 n
same,TSH increased/hyperthyroidism,[3],0 n
same,treatment-related AE leading to discontinuation of treatment: demyelination,[3],1%
same,treatment-related AE leading to discontinuation of treatment: nephritis,[3],1%
same,treatment-related AE leading to discontinuation of treatment: pancreatitis,[3],1%
same,AEs leading to death,[2]; % of patients,(2%)
same,AEs leading to death: events,[2],"hematophagic hitiocytosis, lower respiratory tract infection"
same,AEs leading to death,[2]; number of patients,2 n
same,Treatment-related AEs leading to death,[2]; number of patients,0 n
